Here are results for four compounds from patent publication US20220079960A1, “USE OF P1P DERIVATIVES AS THERAPEUTIC AGENT FOR SEPSIS” (AXCESO BIOPHARMACO.,LTD., priority 2019, published 2022).

Read-outs that look alike come from different tables or passages of the source.

One data set has as its system SIRT1. Nature of the data set: Expression of SIRT1 in macrophages, RT-PCR. The format is cell-based. The following applies: Raw 264.7 macrophages; 0.01-1 μM; RT-PCR 24 hours later (FIG. 8). How it is done:
The macrophage cell line used in the experiment was Raw 264.7 cell line purchased from ATCC, and Dulbeco's Modified Eagle's Media high glucose (with 10% FBS, 0.5% P/S) was used as a medium for culturing macrophages. Macrophages were cultured in an incubator at 37° C., 5% CO2. Macrophages were treated with P1P or cP1P drug at concentrations of 0.01 μM, 0.1 μM, and 1 μM, respectively and then LPS of 100 ng/ml after 4 hours, and cultured for 24 hours. The change in SIRT1 protein was measured by RT-PCR.
Expression of SIRT1 protein is very important in the treatment of sepsis. When sepsis is induced, the synthesis and activity of SIRT1 protein is reduced. Macrophages were treated with P1P drugs during culture, and the expression level of SIRT1 protein was confirmed by RT-PCR 24 hours later.

Another data set concerns TNF-α. The data set can be described thus: Inflammatory cytokine (TNF-α) secretion after LPS treatment in macrophages, ELISA. The format is cell-based. The settings on record: Mus musculus. The protocol:
The macrophage cell line used in the experiment was Raw 264.7 cell line purchased from ATCC, and Dulbeco's Modified Eagle's Media high glucose (with 10% FBS, 0.5% P/S) was used as a medium for culturing macrophages. Macrophages were cultured at 37° C., 5% CO2 incubator. Macrophages were treated with P1P or cP1P drugs at concentrations of 0.02 μM, 0.1 uM, 0.5 μM and 1 μM, respectively and then LPS of 1 ng/ml after 6 hours, and cultured for 4 hours. And then changes of inflammatory cytokines (Tumor necrosis factor alpha, TNF-α) were measured by the manufacturer's method using ELISA (BD OPTEIAT™). As a comparison group, S1P was used at the same concentration and conditions.
To this end, macrophage cell lines were treated with LPS to increase inflammatory cytokines, and the efficacy of P1P and derivatives thereof on inflammatory cytokine secretion was evaluated. Macrophage cell lines were treated with P1P drug or cP1P drug, and 6 hours later, treated with LPS at a concentration of 500 ng/mL for 4 hours.
For orientation: ELISA stands for enzyme-linked immunosorbent assay.

Data set [1] has as its system Human umbilical vein endothelial cell (HUVEC). The data set can be described thus: Survival of human vascular endothelial cells under oxidative stress (H2O2), MTT assay. The settings on record: for cell viability compared with S1P: 500 μM hydrogen peroxide (FIG. 7). The format is cell-based. How it is done: Human umbilical vein endothelial cell (HUVEC) used in the experiment was purchased from Promocell, and cultured in an incubator at 37° C., 5% CO2 using Endothelial Cell Growth Medium 2 as a culture medium. To confirm the efficacy of P1P drug in an oxidative stress environment, HUVEC cells were pretreated with P1P or cP1P at concentrations of 10 nM, 100 nM, and 1000 nM for 1 hour, and then exposed to oxidative stress by treatment with 500 μM hydrogen peroxide (H2O2) for 6 hours. The efficacy of the […] drug on the survival of HUVEC cells after 6 hours of exposure to oxidative stress was confirmed by MTT assay. As a comparison group, S1P was used at the same concentration and conditions.
In addition to causing inflammation, LPS promotes oxidative stress to promote vascular endothelial cell death. To analyze the effect of the present drugs, oxidative stress was induced in vascular endothelial cells by treatment with 500 μM of hydrogen peroxide.
For orientation: Formazan colour is commonly taken as a measure of viable cells.

For data set [2] the test system is unchanged. Nature of the data set: Proliferation of human vascular endothelial cells, MTT assay. The format is cell-based. The settings on record: 10 nM, 100 nM and 1000 nM, 48 hours, compared with S1P (FIG. 6). The protocol: Human umbilical vein endothelial cell (HUVEC) used in the experiment was purchased from Promocell, and cultured in an incubator at 37° C., 5% CO2 using Endothelial Cell Growth Medium 2 as a culture medium. To confirm the proliferation effect of P1P drug, HUVEC cells were treated with P1P or cP1P drug at concentrations of 10 nM, 100 nM and 1000 nM, respectively, and cultured for 48 hours. The cell proliferation rate was measured according to the manufacturer's method using MTT assay (Molecular Probes). As a comparison group, S1P was used at the same concentration and conditions.

Another data set can be described thus: Solubility in water. Type of data set: physicochemical.
The subject of another data set is Balb/c mice. Nature of the data set: LPS sepsis mouse model: effect of drugs on survival rate. The settings on record: for Survival rate (%): drug 40 μg/mouse i.p. 5 minutes after LPS. Type of data set: in vivo. How it is done:
For the experiment of the survival rate of mice after LPS administration, 7-week-old Balb/c mice were purchased from Orient Bio and adapted to the laboratory. Then, LPS (Sigma) was dissolved in phosphate buffer solution (PBS) at a concentration of 400 μg/mouse, 200 μg/mouse, 170 μg/mouse, 150 μg/mouse, 125 μg/mouse, and 100 μg/mouse, and 100 uL of each was injected into the abdominal cavity of a mouse.
To this end, the LPS concentration was determined to be 150 μg/mouse, and the P1P drug was intraperitoneally injected at a concentration of 40 μg/mouse 5 and 60 minutes after intraperitoneal injection of LPS. The survival rate was measured by observation for 72 hours at 12 hour intervals. In another experiment, P1P drug was injected intraperitoneally at a concentration of 40 μg/mouse 1 hour after intraperitoneal injection of LPS of 125 μg/mouse to compare the survival rate of mice. In the same way, the survival rate was measured while changing the P1P concentration.
To this end, the LPS concentration was determined to be 150 μg/mouse, and the cP1P drug was intraperitoneally injected at a concentration of 40 μg/mouse 5 and 60 minutes after intraperitoneal injection of LPS. The survival rate was measured by observation for 72 hours at 12 hour intervals. In another experiment, cP1P drug was injected intraperitoneally at a concentration of 40 μg/mouse 1 hour after intraperitoneal injection of LPS of 125 μg/mouse to compare the survival rate of mice.
Soybean lecithin called Lipoid S-75 was used to prepare the liposome, and 20 mg of lecithin was dissolved in 1 mL of chloroform. P1P or cP1P was dissolved in 1 mL of chloroform/methanol (2:1, v/v) solvent in an amount of 2 mg, 1 mg or 0.5 mg, respectively, and mixed with the lecithin solution. A thin lipid film was made by removing the organic solvent from the mixed solution using nitrogen gas or a rotary evaporator. The thin lipid film was stored in a vacuum desiccator overnight to completely remove the organic solvent remaining on the film. 5 mL of a phosphate buffer solution was added to the thin lipid film and stirred for 30 minutes to prepare multilamellar vesicles (MLV, large liposomes). The prepared MLV particles were sonicated for 2 minutes in an ice bath to make small unilamellar vesicles (SUV) of 100 nm or less. This sonication process was repeated twice. Only the supernatant obtained by centrifugation of the prepared SUV at 12000 rpm for 5 minutes was used in the experiment. Liposomes containing P1P or cP1P drug (P1P-liposomes/cP1P-liposomes) were used in an experiment to increase the survival rate of mice using LPS. To this end, LPS of 170 μg/mouse, which is higher than the conventional LPS concentration (125-150 μg/mouse), was injected into the abdominal cavity of the mouse. P1P or cP1P drug was administered at 40 μg/mouse 5 minute after LPS administration, and 100 μl of P1P-liposomes and cP1P-liposomes (P1P and cP1P of about 40 μg/mouse) were injected into the abdominal cavity of the mouse, and the survival rate change was determined over time.
The effect of P1P to treat sepsis was tested under the same conditions as described in the experimental method. P1P of 40 μg/mouse was administered intraperitoneally and intravenously 5 minutes after intraperitoneal injection of LPS of 150 μg/mouse. […] When the P1P drug was administered 1 hour after LPS administration, the survival rate was about 40% for intraperitoneal injection and 20% for intravenous injection (FIG. 2b). These indicate that P1P effectively ameliorated sepsis induced after LPS treatment. Furthermore, P1P of 40 μg/mouse was administered by intraperitoneal injection 1 hour after intraperitoneal injection of 125 μg/mouse of LPS. […] In the case of 20 μg/mouse concentration, the survival rate was 80%, and in the case of 10 μg/mouse concentration, the survival rate was about 60% (FIG. 3b). It was confirmed that P1P increased the survival rate in a concentration-dependent manner. […]

The conditions of data set [3]: S1P administered directly; cited from earlier work.
[4] abbreviates: RAW264.7, read-out: inhibitory efficacy on inflammatory cytokine (TNF-α) production.
[5] abbreviates: LPS 125 μg/mouse i.p., drug 40 μg/mouse i.p. 1 hour after LPS (FIG. 3a, FIG. 4b).
Setting [6] is: LPS 150 μg/mouse i.p., drug 40 μg/mouse intraperitoneally 5 minutes after LPS (FIG. 2a, FIG. 4a).

`CCCCCCCCCCCCCC[C@@H](O)[C@H](O)[C@H](N)COP(=O)(O)O` (stereo in doubt) [P1P, Phytosphingosine-1-phosphate]: in the data set on SIRT1, the “expression level of SIRT1 protein” value was “increased SIRT1 protein even at very low concentrations”. Besides, in the data set on TNF-α (setting [4]), the inhibition at 1 µM worked out at 49%. Moreover, in data set [1], the “cell viability compared with S1P” value was “higher cell viability than S1P”. Besides, the cell viability in data set [1] (500 μM hydrogen peroxide, untreated control about 40%) is on record as no less than 70%. Also, the “efficacy on proliferation of vascular endothelial cells” value in data set [2] was “higher than that of S1P”. Moreover, the solubility in water result in “Solubility in water” was “poorly soluble in water”. Moreover, the survival rate in the data set on Balb/c mice (setting [5]) is 100%; in the data set with Balb/c mice (LPS 125 μg/mouse, drug 10 μg/mouse 60 minutes after LPS (FIG. 3b)), “about 60%”; with Balb/c mice (LPS 125 μg/mouse, drug 20 μg/mouse 60 minutes after LPS (FIG. 3b)) it was 80%; in the data set on Balb/c mice (setting [6]), no less than 80%; in the data set on Balb/c mice (LPS 150 μg/mouse i.p., drug 40 μg/mouse intravenously 5 minutes after LPS (FIG. 2a)), no less than 80%; in the data set on Balb/c mice (LPS 150 μg/mouse i.p., drug by intraperitoneal injection 1 hour after LPS (FIG. 2b)), “about 40%”. Besides, the survival rate in the data set with Balb/c mice (LPS 150 μg/mouse i.p., drug by intravenous injection 1 hour after LPS (FIG. 2b)) was determined as 20%. Besides, in the data set on Balb/c mice (LPS 125 μg/mouse, drug 40 μg/mouse 60 minutes after LPS, up to 72 hours (FIG. 3b)), the “survival of mice while varying drug concentration” value is given as “all of them survived up to 72 hours”. In addition, the “Survival rate (%)” value came to 100% with Balb/c mice (LPS 150 μg/mouse i.p., 0 h); 100% with Balb/c mice (LPS 150 μg/mouse i.p., 12 h); 100% in the data set on Balb/c mice (LPS 150 μg/mouse i.p., 24 h); 80% with Balb/c mice (LPS 150 μg/mouse i.p., 48 h); 80% in the data set on Balb/c mice (LPS 150 μg/mouse i.p., 72 h); 100% in the data set on Balb/c mice (LPS 170 μg/mouse i.p., 0 h). Further, the “Survival rate (%)” value with Balb/c mice (LPS 170 μg/mouse i.p., 12 h) was found to be 80%; with Balb/c mice (LPS 170 μg/mouse i.p., 24 h), 40%; in the data set on Balb/c mice (LPS 170 μg/mouse i.p., 36 h), 20%; with Balb/c mice (LPS 170 μg/mouse i.p., 48 h) it was 20%; in the data set with Balb/c mice (LPS 170 μg/mouse i.p., 72 h), 20%.

`CCCCCCCCc1ccc(CCC(N)(CO)CO)cc1` [FTY720, fingolimod, reference compound]: the “Survival rate (%)” value in the data set with Balb/c mice (LPS 150 μg/mouse i.p., 0 h) is 100%; in the data set on Balb/c mice (LPS 150 μg/mouse i.p., 12 h), 100%; with Balb/c mice (LPS 150 μg/mouse i.p., 24 h) it was 40%; in the data set with Balb/c mice (LPS 150 μg/mouse i.p., 36 h), 20%; with Balb/c mice (LPS 150 μg/mouse i.p., 48 h), 20%; in the data set with Balb/c mice (LPS 150 μg/mouse i.p., 72 h), 20%.

`CCCCCCCCCCCCC/C=C/[C@@H](O)[C@@H](N)COP(=O)(O)O` [S1P, sphingosine-1-phosphate, reference compound]: in the data set on TNF-α (RAW264.7, 1 μM, Raw 264.7 macrophages, drug 6 hours before LPS, LPS 4 hours, ELISA, read-out: inhibitory efficacy on inflammatory cytokine (TNF-α) production), the inhibition at 1 µM was 19%. Also, the “Survival rate (%)” value came to 100% in the data set on Balb/c mice (LPS 150 μg/mouse i.p., 0 h); 100% in the data set with Balb/c mice (LPS 150 μg/mouse i.p., 12 h); 40% with Balb/c mice (LPS 150 μg/mouse i.p., 36 h); 40% with Balb/c mice (LPS 150 μg/mouse i.p., 48 h); 40% with Balb/c mice (LPS 150 μg/mouse i.p., 72 h). The “degradation rate in the blood” value in data set [3] is listed as “high degradation rate in the blood”.

On to `CCCCCCCCCCCCCC[C@@H](O)[C@H]1OP(=O)(O)OC[C@@H]1N` [cP1P, O-cyclic P1P], for which the “expression level of SIRT1 protein” value with SIRT1 was “increased SIRT1 protein even at very low concentrations”. Besides, the inhibition at 1 µM in the data set on TNF-α (setting [4]) was 35%. Moreover, in data set [1], the “cell viability compared with S1P” value is “higher cell viability than S1P”. Also, in data set [2], the “efficacy on proliferation of vascular endothelial cells” value was “higher than that of S1P”. Further, the solubility in water result in the data set “Solubility in water” is on record as “poorly soluble in water”. Besides, the survival rate result is given as “about 100%” in the data set on Balb/c mice (setting [5]) and no less than 70% in the data set on Balb/c mice (setting [6]). For the same compound, the “Survival rate (%)” value was found to be 100% with Balb/c mice (LPS 170 μg/mouse i.p., 0 h); 80% in the data set on Balb/c mice (LPS 170 μg/mouse i.p., 12 h); 60% with Balb/c mice (LPS 170 μg/mouse i.p., 24 h); 40% with Balb/c mice (LPS 170 μg/mouse i.p., 36 h); 40% in the data set with Balb/c mice (LPS 170 μg/mouse i.p., 48 h); 40% in the data set with Balb/c mice (LPS 170 μg/mouse i.p., 72 h).

A word on the cell viability: it is a per cent measure of how many cells are alive, often set against a control.
